In US20260234112A1, “COMPOUNDS, COMPOSITIONS, AND METHODS OF USE THEREOF” (Type6 Therapeutics, Inc., priority 2023, published 2026) one finds Kd data, which are given here for twelve compounds.

The target of the experiment is T1, Cdk2(2-298) (Homo sapiens, UniProt P24941).
T1 construct: Biotinylated N-terminal avi-tagged Cdk2(2-298) or Cdk1(1-297) was immobilized
As to the kind of experiment: Surface Plasmon Resonance (SPR) compound interaction, Biacore 8K. It counts as binding. The following applies: single-cycle kinetics (SCK, "S"), dissociation 1800 sec, read-out: Activity rating (KD). Here is the method: Compound interaction was profiled using a Biacore 8K instrument (Cytiva). Biotinylated N-terminal avi-tagged Cdk2(2-298) or Cdk1(1-297) was immobilized on a series S sensor Chip SA at a capture level between 2500 RU and 3000 RU (Cdk2) or 7000 RU (Cdk1) in buffer (25 mM HEPES, 150 mM NaCl, 0.05% Tween20, pH 7.5). A compound dilution plate (8 concentrations, 3-fold dilution) in DMSO was prepared (100× assay concentration). From this plate, compound DMSO stock solution was transferred into buffer, yielding a final DMSO concentration of 1% in assay. The remaining buffer was supplemented with 1% DMSO. Compounds were injected in a series of increasing concentrations in multi-cycle kinetics (MCK, “M”) or single-cycle kinetics (SCK, “S”) mode at a flow rate of 30 μl/min for 120 sec and dissociation was profiled for 180 sec (MCK) or 1800 sec (SCK). Data were analysed using Biacore Insight Evaluation Software (Cytiva).
Turning to `C=Cc1ccc(-c2ccnc(N[C@H]3CC[C@H](N)CC3)n2)c(Oc2ccc(NS(=O)(=O)c3ccccc3Cl)cc2F)c1` [Compound 21, N-[4-[2-[2-[(1r,4r)(4-Aminocyclohexyl)amino]pyrimidin-4-yl]-5-ethenylphenoxy]-3-fluorophenyl] 2-chlorobenzenesulfonamide], the Kd lay in the range of 11 to 100 nM.

In the case of `N[C@H]1CC[C@H](Nc2nccc(-c3cnccc3Oc3cc(Cl)c(NS(=O)(=O)c4ccccc4)cc3F)n2)CC1` [Compound 48, N-[4-[[3-[2-[(1r,4r)(4-Aminocyclohexyl)amino]pyrimidin-4-yl]-4-pyridyl]oxy]-2-chloro-5-fluorophenyl] benzenesulfonamide], the Kd was in the range of 11 to 100 nM.

As for `O=S(=O)(Nc1ccc(Oc2ccncc2-c2ccnc(NCCn3ccnc3)n2)c(F)c1)c1ccccc1Cl` [Compound 95], the Kd is 11 to 100 nM.

As for `CCc1ccccc1S(=O)(=O)Nc1ccc(Oc2ccncc2-c2ccnc(N[C@H]3CC[C@H](N)CC3)n2)c(F)c1` [Compound 71, N-[4-[[3-[2-(1r,4r)[(4-Aminocyclohexyl)amino]pyrimidin-4-yl]-4-pyridyl]oxy]-3-fluorophenyl] 2-ethylbenzenesulfonamide], the Kd is not above 10 nM.

Turning to `Cc1ccc(-c2ccnc(N[C@H]3CC[C@H](N)CC3)n2)c(Oc2ccc(NS(=O)(=O)c3ccccc3Cl)cc2F)c1` [Compound 9, N-[4-[2-[2-[(1r,4r)(4-Aminocyclohexyl)amino]pyrimidin-4-yl]-5-methylphenoxy]-3-fluorophenyl] 2-chlorobenzenesulfonamide], the Kd lay within 11 to 100 nM.

Turning to `O=S(=O)(Nc1ccc(Oc2ccccc2-c2ccnc(N[C@H]3CCCNC3)n2)c(F)c1)c1cccc2ccccc12` [Compound 6, N-[3-Fluoro-4-[2-[2-[[(3S)-3-piperidyl]amino]pyrimidin-4-yl]phenoxy]phenyl] naphthalene-1-sulfonamide], the Kd was 100 to 1000 nM.

`N[C@H]1CC[C@H](Nc2nccc(-c3cnccc3Oc3cc(Cl)c(NS(=O)(=O)C4CC4)cc3F)n2)CC1` [Compound 60, N-[4-[[3-[2-[(1r,4r)(4-Aminocyclohexyl)amino]pyrimidin-4-yl]-4-pyridyl]oxy]-2-chloro-5-fluorophenyl] cyclopropylsulfonamide]: the Kd was 1000 to 5000 nM.

Take `N[C@H]1CC[C@H](Nc2nccc(-c3cccnc3Sc3ccc(NS(=O)(=O)c4ccccc4Cl)cc3F)n2)CC1` [Compound 108, N-(4-((3-(2-(((1r,4r)-4-Aminocyclohexyl)amino)pyrimidin-4-yl)pyridin-2-yl)thio)-3-fluorophenyl) 2-chlorobenzenesulfonamide]: the Kd is not above 10 nM.

In the case of `N[C@H]1CC[C@H](Nc2nccc(-c3cnccc3Sc3ccc(NS(=O)(=O)c4ccccc4Cl)cc3F)n2)CC1` [Compound 116, N-[4-[[3-[2-[((1r,4r)4 aminocyclohexyl)amino]pyrimidin-4-yl]-4-pyridyl]thio]-3-fluoro-phenyl] 2-chlorobenzenesulfonamide], the Kd was not above 10 nM.

Take `N[C@H]1CC[C@H](Nc2nccc(-c3cnccc3Oc3ccc(NS(=O)(=O)c4c(F)cccc4F)cc3F)n2)CC1` [Compound 26, N-[4-[[3-[2-[(1r,4r)(4-Aminocyclohexyl)amino]pyrimidin-4-yl]-4-pyridyl]oxy]-3-fluoro-phenyl] 2,6-difluoro-benzenesulfonamide]: the Kd was not above 10 nM.

As for `N[C@H]1CC[C@H](Nc2nccc(-c3cnccc3Oc3ccc(NS(=O)(=O)c4cccs4)cc3F)n2)CC1` [Compound 29], the Kd was in the range of 11 to 100 nM.

For the compound `N[C@H]1CC[C@H](Nc2nccc(-c3cnccc3Oc3ccc(NS(=O)(=O)c4ccc(CCO)cc4F)cc3F)n2)CC1` [Compound 83, N-[4-[[3-[2-(1r,4r)[(4-Aminocyclohexyl)amino]pyrimidin-4-yl]-4-pyridyl]oxy]-3-fluorophenyl] 2-fluoro-4-(2-hydroxyethyl)benzenesulfonamide], the Kd lay within 100 to 1000 nM.

By Kd is commonly meant the free concentration of one partner at which half of the binding sites on the other are occupied at equilibrium, for simple one-to-one binding.
